In brackets after ≈: the same amount, converted by molar mass. Where two headings read alike, the source gives them in different places.
Tests used:
[1] = system: C. albicans S1 (FLU-sensitive); experiment: Colorimetric resazurin assay (MIC) in C. albicans S1; format: cell-based; conditions: read-out: MIC, colorimetric assay
C. albicans S1 = experiment: Mouse model of vulvovaginal candidiasis (VVC); conditions: for expression of MPO in vaginal tissue (IHC): day 6, compared to 6th day infected and vehicle groups; for PMN counts of vaginal tissues: day 6, compared to control and vehicle group; for histopathology of vaginal tissue (H&E): day 6, infected and treated mice; for gross markers of the health of the mice: intravaginal suspension, over the course of the study; for Log CFU/100 μL / Remaining C. albicans S1 Compared to Control (100%): vaginal lavage day 6, intravaginal once daily days 3-5, CHB 12.5 mg/kg, MICO 2% cream
[2] = system: human epidermoid carcinoma cells KB-3-1; experiment: MTT cell viability assay in KB-3-1 cells; format: cell-based; conditions: for IC50: 24 h incubation, 48 h of treatment; for fungal selectivity (ratio of the IC50 in KB-3-1 cells to the IC50 in S1 cells): KB-3-1 vs C. albicans S1
Procedure: MTT assays were then performed to assess the effect of the test compounds on human epidermoid carcinoma cells KB-3-1 (24 h incubation).
The cell viability assay was performed in human epidermoid carcinoma cells KB-3-1. Initially, 5 × 10^3 cells were seeded into each well in a 96-well plate. […] After 48 h of treatment, 20 µL of MTT solution (5 mg/mL) was added to each well and allowed to incubate for 3.5 h. Subsequently, DMSO was added to each well upon removal of the MTT solution. The Abs570nm values were then measured using an accuSkanTM GO UV/VIS Microplate Spectrophotometer (Fisher Sci., Fair Lawn, NJ, USA).

[3] = system: C. albicans S1 (FLU-sensitive); experiment: Turbidity assay (MIC and IC50) in C. albicans S1; format: cell-based
[4] = system: breast cancer cell line MCF-7; parameters: method as in PMID 31683558; conditions: breast cancer cell line MCF-7 ref 23; cited from earlier work
[5] = target: Na+, K+-ATPase (purified from pig kidney outer medulla) (Sus scrofa, UniProt P05024); experiment: Na+,K+-ATPase activity assay; format: biochemical; conditions: test concentrations similar to the MIC concentrations; micromolar range; prevented by 5 mM GSH
[6] = target: yeast plasma membrane H+-ATPase (Pma1p) (Candida albicans, UniProt P28877); experiment: Medium acidification assay in C. albicans S1; format: cell-based; conditions: change in pH at 30 min, highest test concentration 30 µM, mean ± SEM of three experiments
[7] = system: reconstructed human epidermis; experiment: In vitro skin irritation test on reconstructed human epidermal model (EpiDerm, OECD TG 439); format: cell-based
Procedure: The in vitro skin irritation test was performed using MatTek Corporation’s Reconstructed Human Epidermal Model EpiDerm™ following the manufacturer’s instructions, which fulfills the criteria set forth in the Organization for Economic Co-operation and Development.
Briefly, we applied either 30 µL of CHB4 or CHB6, PBS, 0.1% DMSO or 30 µL of 1% Triton-X100 (positive control for irritation). All plates were then incubated in a humidified environment for an additional 35 ± 1 min at 37 ± 1 °C, 5 ± 1% CO2, and 90% ± 10% relative humidity (RH). Once the 1 h incubation period was completed for the dosed tissues, all plates were removed from the incubator and placed in a sterile hood. The tissues were then rinsed 15 times with sterile PBS. The blotted tissue inserts were then incubated for 42 ± 2 h after which time the cell viability was determined using the MTT assay as described.

[8] = Homo sapiens, KB 3-1, read-out: MTT Assay IC50 KB-3-1 Cells, KB-3-1 cells
[9] = Candida albicans, 24 h, read-out: MIC, turbidity assay
[10] = Candida albicans, 48 h, read-out: MIC, turbidity assay
[11] = Candida albicans, 48 h, read-out: Turbidity Assay IC50 C. albicans S1
[12] = read-out: IC50MA (medium acidification)
[13] = Candida albicans, C. albicans S1, 24 h, resazurin
[14] = Candida albicans, C. albicans S1, 48 h, resazurin
[15] = Homo sapiens, KB 3-1, KB-3-1 cells, read-out: MTT Assay IC50 KB-3-1 Cells
[16] = Candida albicans, 24 h; read-out: MIC, turbidity assay
[17] = Candida albicans, 48 h; read-out: MIC, turbidity assay
[18] = Candida albicans; Abs600nm at 48 h; read-out: Turbidity Assay IC50 C. albicans S1
[19] = KB-3-1 cells, read-out: MTT Assay IC50 KB-3-1 Cells
[20] = Abs600nm at 48 h; read-out: Turbidity Assay IC50 C. albicans S1
[21] = C. albicans S1, 24 h; for FLU the lowest concentration causing 70% decrease in turbidity; read-out: MIC, turbidity assay
[22] = C. albicans S1, 48 h; for FLU the lowest concentration causing 70% decrease in turbidity; read-out: MIC, turbidity assay
[23] = Candida albicans, 48 h, Abs600nm at 48 h; read-out: Turbidity Assay IC50 C. albicans S1

Sequence of yeast plasma membrane H+-ATPase (Pma1p) (P28877 whole entry): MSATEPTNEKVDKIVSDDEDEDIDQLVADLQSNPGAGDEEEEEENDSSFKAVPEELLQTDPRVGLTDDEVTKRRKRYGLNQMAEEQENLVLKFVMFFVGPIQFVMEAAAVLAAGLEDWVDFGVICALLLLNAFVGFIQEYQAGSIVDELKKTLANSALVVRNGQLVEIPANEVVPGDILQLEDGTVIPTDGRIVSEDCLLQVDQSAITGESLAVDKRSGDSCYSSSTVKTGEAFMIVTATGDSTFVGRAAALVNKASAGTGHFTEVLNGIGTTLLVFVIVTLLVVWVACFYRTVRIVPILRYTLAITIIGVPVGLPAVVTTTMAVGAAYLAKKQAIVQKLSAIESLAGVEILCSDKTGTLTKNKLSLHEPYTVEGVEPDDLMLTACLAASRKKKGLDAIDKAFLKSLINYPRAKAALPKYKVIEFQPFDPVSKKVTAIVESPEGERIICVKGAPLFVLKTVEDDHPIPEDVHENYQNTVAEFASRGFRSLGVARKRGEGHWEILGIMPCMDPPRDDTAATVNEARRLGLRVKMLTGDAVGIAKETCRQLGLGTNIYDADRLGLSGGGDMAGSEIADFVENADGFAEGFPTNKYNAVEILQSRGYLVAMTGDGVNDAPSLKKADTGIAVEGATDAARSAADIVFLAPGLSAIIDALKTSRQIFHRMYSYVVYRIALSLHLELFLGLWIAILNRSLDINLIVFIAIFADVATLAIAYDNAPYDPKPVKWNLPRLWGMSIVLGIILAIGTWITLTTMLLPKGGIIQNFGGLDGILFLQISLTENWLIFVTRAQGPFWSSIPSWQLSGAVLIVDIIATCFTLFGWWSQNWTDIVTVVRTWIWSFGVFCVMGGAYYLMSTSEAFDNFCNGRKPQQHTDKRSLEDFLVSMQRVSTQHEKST

Compound | MIC ([1]; Candida albicans, 24 h) | MIC ([1]; Candida albicans, 48 h) | histopathology of vaginal tissue (H&E) (C. albicans S1) | Log CFU/100 μL (C. albicans S1) | Remaining C. albicans S1 Compared to Control (100%) (C. albicans S1) | IC50 [2, 8] | MIC [3, 9] | MIC [3, 10] | IC50 [3, 11] | inhibitory activity towards the Na+, K+-ATPase [5] | IC50 [6, 12] | MIC [1, 13] | MIC [1, 14] | IC50 [2, 15] | MIC [3, 16] | MIC [3, 17] | IC50 [3, 18] | IC50 ([6]; IC50MA (medium acidification)) | MIC [3, 21] | MIC [3, 22] | also measured
CC(C)[C@@H]1CC[C@@H](C)C[C@H]1n1[se]c2ccccc2c1=O [CHB6, (−)-N-(1R,2S,5R)-menthyl-1,2-benzizoselenazol-3(2H)-one] | 3.1 µM (≈ 1.04 µg/mL) | 3.1 µM (≈ 1.04 µg/mL) | slight epithelial distress | 3.655 Log CFU/100 μL | 1.064% | 48.5 ± 5.9 µM | 3.1 µM (≈ 1.04 µg/mL) | 3.1 µM (≈ 1.04 µg/mL) | 1.8 ± 0.1 µM | possess inhibitory activity | > 30 µM |  |  |  |  |  |  |  |  |  | expression of MPO in vaginal tissue (IHC) (C. albicans S1): decrease; PMN counts of vaginal tissues (C. albicans S1): less PMN counts compared to control and vehicle group; gross markers of the health of the mice (C. albicans S1): without affecting any gross markers of the health of the mice; fungal selectivity (ratio of the IC50 in KB-3-1 cells to the IC50 in S1 cells) [2]: 26.9; IC50 [4]: 11.9 ± 0.2 µM; skin irritation ([7]; test concentrations up to 50 µM): no skin irritation
C[C@H]1[C@H](n2[se]c3ccccc3c2=O)C[C@@H]2C[C@H]1C2(C)C [CHB2] |  |  |  |  |  |  |  |  |  |  |  | 12.5 µM (≈ 4.18 µg/mL) | 12.5 µM (≈ 4.18 µg/mL) | 25.5 ± 1.9 µM | 12.5 µM (≈ 4.18 µg/mL) | 12.5 µM (≈ 4.18 µg/mL) | 7.6 ± 0.1 µM | > 30 µM |  |  | 
C[C@@H]1[C@@H](n2[se]c3ccccc3c2=O)C[C@H]2C[C@@H]1C2(C)C [CHB1] |  |  |  |  |  |  |  |  |  |  |  | 12.5 µM (≈ 4.18 µg/mL) | 6.3 µM (≈ 2.11 µg/mL) | 28.1 ± 1.5 µM | 12.5 µM (≈ 4.18 µg/mL) | 12.5 µM (≈ 4.18 µg/mL) | 7.3 ± 0.1 µM | > 30 µM |  |  | 
Clc1ccc(COC(Cn2ccnc2)c2ccc(Cl)cc2Cl)c(Cl)c1 (centres unmarked) [Miconazole (MICO), miconazole, reference compound] |  |  | slight epithelial distress | 4.470 Log CFU/100 μL | 6.950% |  |  |  |  |  |  |  |  |  |  |  |  |  |  |  | 
O=c1c2ccccc2[se]n1-c1ccccc1 [EB, Ebselen, reference compound] |  |  |  |  |  |  |  |  |  | possess inhibitory activity |  | 25 µM (≈ 6.85 µg/mL) | 25 µM (≈ 6.85 µg/mL) | 89.7 µM | 25 µM (≈ 6.85 µg/mL) | 25 µM (≈ 6.85 µg/mL) |  |  | 25.0 µM (≈ 6.85 µg/mL) | 25.0 µM (≈ 6.85 µg/mL) | MIC ([1]; C. albicans S1, 24 h, resazurin): 25.0 µM (≈ 6.85 µg/mL); MIC ([1]; C. albicans S1, 48 h, resazurin): 25.0 µM (≈ 6.85 µg/mL); IC50 [2, 19]: 89.7 ± 3.42 µM; IC50 [3, 20]: 17.1 ± 1.01 µM; IC50 [3, 23]: ~17 µM
OC(Cn1cncn1)(Cn1cncn1)c1ccc(F)cc1F [FLU, fluconazole, reference compound] |  |  |  |  |  |  |  |  |  |  | > 30 µM |  |  | > 1000 µM | 25 µM (≈ 7.66 µg/mL) | 25 µM (≈ 7.66 µg/mL) |  |  | 25.0 µM (≈ 7.66 µg/mL) | 25.0 µM (≈ 7.66 µg/mL) | IC50 [3, 20]: 6.01 ± 0.1 µM; IC50 [3, 23]: ~6 µM
CC1(C)C2CCC(Cn3[se]c4ccccc4c3=O)C1C2 (single isomer, unassigned; (-)) [CHB3] | 12.5 µM (≈ 4.18 µg/mL) | 25 µM (≈ 8.36 µg/mL) |  |  |  | > 60 µM | 25 µM (≈ 8.36 µg/mL) | 25 µM (≈ 8.36 µg/mL) | 18.1 ± 0.2 µM |  | > 30 µM |  |  |  |  |  |  |  | 25.0 µM (≈ 8.36 µg/mL) | 25.0 µM (≈ 8.36 µg/mL) | IC50 ([2]; read-out: MTT Assay IC50 KB-3-1 Cells, KB-3-1 cells): 65.7 ± 4.4 µM
C[C@H]1CC[C@@H]2[C@H]([C@@H]1n1[se]c3ccccc3c1=O)C2(C)C [CHB4] | 6.3 µM (≈ 2.11 µg/mL) | 12.5 µM (≈ 4.18 µg/mL) | slight epithelial distress | 4.448 Log CFU/100 μL | 6.607% | 17.9 ± 3.1 µM | 12.5 µM (≈ 4.18 µg/mL) | 12.5 µM (≈ 4.18 µg/mL) | 7.7 ± 0.1 µM | possess inhibitory activity | 13.8 ± 1.1 µM |  |  |  |  |  |  |  |  |  | expression of MPO in vaginal tissue (IHC) (C. albicans S1): decrease; PMN counts of vaginal tissues (C. albicans S1): less PMN counts compared to control and vehicle group; gross markers of the health of the mice (C. albicans S1): without affecting any gross markers of the health of the mice; fungal selectivity (ratio of the IC50 in KB-3-1 cells to the IC50 in S1 cells) [2]: 2.3; skin irritation ([7]; test concentrations up to 100 µM): no skin irritation
C[C@@H]1C[C@H]2[C@@H](C[C@H]1n1[se]c3ccccc3c1=O)C2(C)C [CHB5] |  |  |  |  |  |  |  |  |  |  |  | 12.5 µM (≈ 4.18 µg/mL) | 25 µM (≈ 8.36 µg/mL) | > 90 µM | 25 µM (≈ 8.36 µg/mL) | 12.5 µM (≈ 4.18 µg/mL) | 7.5 ± 0.1 µM | > 30 µM |  |  | IC50 [2, 19]: 94.1 ± 4.7 µM

Source: article PMC10647704 (Molecules, 2023)
